Data: patent publication US20130029928A1 (priority 2010, published 2013)
Like-named read-outs stand apart in the source and are kept apart here.

Test: Phase I study CXR1002-001: plasma pharmacokinetics (LC-MS/MS)
Type: in vivo, human
Details: for concentration at 696 h: 696 hr (Day 29)
Source text: PK samples, PD (fasting) samples, blood glucose, and blood triglyceride samples, were taken over a 6-week period.
Dose limiting toxicity (DLT) will be based on the toxicity assessments over the first 3-week period of the repeat dosing schedule. PK samples (single blood sample) were taken on the following basis: • Every 6 weeks during the repeat dosing phase • If dosing is interrupted or stopped, samples will be taken at intervals according to patient convenience • PK sampling for safety evaluation may take place at any time, as clinically indicated
Plasma samples were collected after the single 50 mg dose at the following timepoints: Pre-dose, and then 0.25, 0.5, 0.75, 1, 1.5, 2, 3, 4, 6, 24, 48, and 72 hours after administration and then once weekly at weeks 2, 3, 4, 5, and 6 (days 8, 15, 22, 29, and 36). For patients treated with the weekly repeat dose, plasma samples were collected at the following timepoints: Pre-dose and then 2, 3, 4 and 24 hours after administration for a total of 6 weeks. Thereafter a single sample was collected every 6 weeks for monitoring of exposure during long term treatment. Plasma samples were processed at site and stored at −80° C. prior to batch shipment to the analytical laboratory.

[1] = human, plasma, oral, 50 mg, Patient 001 Dose 50 mg
[2] = human, plasma, oral, 50 mg, Patient 001 Dose 50 mg, read-out: Concentration
[3] = human, plasma, oral, 50 mg, Patient 002 Dose 50 mg
[4] = human, plasma, oral, 50 mg, Patient 002 Dose 50 mg, read-out: Concentration
[5] = human, plasma, oral, 50 mg, Patient 003 Dose 50 mg

Compound: O=C(O)C(F)(F)C(F)(F)C(F)(F)C(F)(F)C(F)(F)C(F)(F)C(F)(F)F [CXR1002]
- maximal plasma level recorded (1200 mg weekly dose over a 5 week period, one patient): 1530 µM
- Concentration (Patient 032, 950 mg, person, plasma, 0 hr (pre-dose)): BLQ
- oral bioavailability (clinical trials): orally bioavailable
- concentration at 168 h (female, human, plasma, oral, Female, plasma, 168 hr (Day 8), read-out: Concentration): 146 µM
- concentration at 170 h (female, human, plasma, oral, Female, plasma, 170 hr, read-out: Concentration): 276 µM
- concentration at 171 h (female, human, plasma, oral, Female, plasma, 171 hr, read-out: Concentration): 253 µM
- concentration at 172 h (female, human, plasma, oral, Female, plasma, 172 hr, read-out: Concentration): 248 µM
- concentration at 192 h (female, human, plasma, oral, Female, plasma, 192 hr (Day 9), read-out: Concentration): 246 µM
- concentration at 504 h (female, human, plasma, oral, Female, plasma, 504 hr (Day 22), read-out: Concentration): 333 µM
- concentration at 506 h (female, human, plasma, oral, Female, plasma, 506 hr, read-out: Concentration): 427 µM
- concentration at 507 h (female, human, plasma, oral, Female, plasma, 507 hr, read-out: Concentration): 412 µM
- concentration at 528 h (female, human, plasma, oral, Female, plasma, 528 hr (Day 23), read-out: Concentration): 405 µM
- concentration at 840 h (female, human, plasma, oral, Female, plasma, 840 hr (Day 36), read-out: Concentration): 434 µM
- concentration at 842 h (female, human, plasma, oral, Female, plasma, 842 hr, read-out: Concentration): 461 µM
- concentration at 843 h (female, human, plasma, oral, Female, plasma, 843 hr, read-out: Concentration): 457 µM
- concentration at 844 h (female, human, plasma, oral, Female, plasma, 844 hr, read-out: Concentration): 482 µM
- concentration at 864 h (female, human, plasma, oral, Female, plasma, 864 hr (Day 37), read-out: Concentration): 526 µM
- concentration at 0 h [1]: 0 µM
- concentration at 0.25 h [1]: 0.35 µM
- concentration at 0.5 hr (human, plasma, oral, 50 mg, Patient 001 Dose 50 mg, 0.5 hr): 1.11 µM
- concentration at 0.75 hr (human, plasma, oral, 50 mg, Patient 001 Dose 50 mg, 0.75 hr): 9.17 µM
- concentration at 1 hr (human, plasma, oral, 50 mg, Patient 001 Dose 50 mg, 1 hr): 14.4 µM
- concentration at 1.5 h [1]: 25.7 µM
- concentration at 2 h (human, plasma, oral, 50 mg, Patient 001 Dose 50 mg, 2 hr, read-out: Concentration): 22.5 µM
- concentration at 3 h [2]: 20.8 µM
- concentration at 6 h [1]: 14.7 µM
- concentration at 24 h [2]: 13.8 µM
- concentration at 48 h [1]: 12.8 µM
- concentration at 72 hr (human, plasma, oral, 50 mg, Patient 001 Dose 50 mg, 72 hr): 9.7 µM
- concentration at 192 hr (human, plasma, oral, 50 mg, Patient 001 Dose 50 mg, 192 hr (Day 8), read-out: Concentration): 8.54 µM
- concentration at 360 hr (human, plasma, oral, 50 mg, Patient 001 Dose 50 mg, 360 hr (Day 15), read-out: Concentration): 8.63 µM
- concentration at 528 h (human, plasma, oral, 50 mg, Patient 001 Dose 50 mg, 528 hr (Day 22), read-out: Concentration): 11.6 µM
- concentration at 696 h [2]: 10.2 µM
- concentration at 864 h (human, plasma, oral, 50 mg, Patient 001 Dose 50 mg, 864 hr (Day 36), read-out: Concentration): 8.89 µM
- concentration at 144 day (human, plasma, oral, 50 mg, Patient 001 Dose 50 mg, Day 144): 226 µM
- concentration at 179 day (human, plasma, oral, 50 mg, Patient 001 Dose 50 mg, Day 179): 250 µM
- concentration at 227 day (human, plasma, oral, 50 mg, Patient 001 Dose 50 mg, Day 227): 308 µM
- concentration at 268 day (human, plasma, oral, 50 mg, Patient 001 Dose 50 mg, Day 268): 268 µM
- concentration at 0 h [3]: 0 µM
- concentration at 0.25 h [3]: 3.06 µM
- concentration at 0.5 h (human, plasma, oral, 50 mg, Patient 002 Dose 50 mg, 0.5 hr): 7.62 µM
- concentration at 0.75 h (human, plasma, oral, 50 mg, Patient 002 Dose 50 mg, 0.75 hr): 8.39 µM
- concentration at 1 h (human, plasma, oral, 50 mg, Patient 002 Dose 50 mg, 1 hr): 8.55 µM
- concentration at 1.5 h [3]: 29.8 µM
- concentration at 3 h [4]: 22.8 µM
- concentration at 4 h (human, plasma, oral, 50 mg, Patient 002 Dose 50 mg, 4 hr, read-out: Concentration): 14.5 µM
- concentration at 6 h [3]: 17.5 µM
- concentration at 24 h [4]: 14.3 µM
- concentration at 48 h [3]: 13.3 µM
- concentration at 72 h (human, plasma, oral, 50 mg, Patient 002 Dose 50 mg, 72 hr): 15.6 µM
- concentration at 192 h (human, plasma, oral, 50 mg, Patient 002 Dose 50 mg, 192 hr (Day 8), read-out: Concentration): 17.2 µM
- concentration at 360 h (human, plasma, oral, 50 mg, Patient 002 Dose 50 mg, 360 hr (Day 15), read-out: Concentration): 18.6 µM
- concentration at 528 h (human, plasma, oral, 50 mg, Patient 002 Dose 50 mg, 528 hr (Day 22), read-out: Concentration): 21.5 µM
- concentration at 696 h [4]: 21 µM
- concentration at 864 h (human, plasma, oral, 50 mg, Patient 002 Dose 50 mg, 864 hr (Day 36), read-out: Concentration): 20.1 µM
- concentration at 0 h [5]: 0.14 µM
- concentration at 0.25 h [5]: 1.08 µM
